From patent publication US8389481B2, “Glutamate-enhanced cell-penetrating peptides and methods of using same” (University of Medicine and Dentistry of New Jersey, priority 2008, dated 2013)
Where “and” joins values, the source holds several entries; their conditions need not be identical. Identical values can stand only once. Primed or numbered codes have the meaning given here. Ends that are not written are not given here. Peptide text beside a SMILES is read from it. * marks the point of attachment. {P353} = cell-penetrating peptide 353 (Glu-Oct6) attached at PNA N-terminus; {Lys-FITC} = C-terminal lysine carrying fluorescein (FITC); 5FAM = O=C1OC2(c3ccc(O)cc3Oc3cc(O)ccc32)c2ccc(C(=O)*)cc21; FITC′ = not defined here

Legend:
Type in all cases: cell-based
[1] = system: DU-145 cells; test: Peptide uptake by live cells, flow cytometry (geometric MFI); settings: for geometric MFI compared among the peptides (FIG. 1A): 500 nM peptides, 4 hrs incubation; for effect of NaN3 on uptake: 0.1 or 1% NaN3, 300 nM peptide; for average geometric MFI: 300 nM peptides, 4° C., 4 hours (FIG. 2); for uptake of carboxydansyl peptide on coincubation with peptide 353: 300 nM each, 1 hr (FIG. 1D)
Procedure: (§1) Uptake of peptides by live cells was compared by flow cytometry, using the exclusion dye 7-amino actinomycin D (7-AAD) to exclude dead cells from analyses.
(§2) Cells: DU-145 and LNCaP cells were the gift of Dr. James Turkson (University of South Florida, Tampa, Fla.). DU-145 cells were grown in DMEM/Ham's F12 (Invitrogen, Carlsbad, Calif.) plus 10% newborn bovine serum (Hyclone, Logan, Utah). LNCaP cells were maintained in RPMI-1640 (Invitrogen) plus fetal bovine serum (Hyclone). Cell viabilities were determined using fluorescein diacetate (Sigma Chemical Co., St. Louis, Mo.) and a Universal RIII fluorescence microscope (Zeiss, Jena, Germany).
(§3) Uptake and Fluorescence Quantification Studies: Peptides were added to subconfluent cultures of cells at times, temperatures, and concentrations indicated in experiments. Concentrations ranging from 0 to 3000 nM were assayed. Cells were analyzed in the presence of […] 7-AAD (eBioscience, San Digeo Calif.) to gate on live events. Fluorescence was quantified, after cells were harvested, using a FACScan flow cytometer. At least 10,000 events were acquired using CellQuest Pro software and an Apple Macintosh G4 dual coprocessor computer running OS X 10.3.9. Fluorescence detectors on the instrument were standardized prior to each acquisition run, so that fluorescence intensities from different days could be compared. Because the FACScan employs logarithmic amplifiers on the fluorescence detectors, the more accurate parameter with which to compare fluorescence intensities for different samples is the geometric mean fluorescence intensity (geometric MFI). In some studies, fixed cells (4% paraformaldehyde/DPBS) were analyzed on an Amnis ImageStream 200 imaging cytometer using IDEAS 3.0 software.

[2] = Cell death determined by staining with 7-AAD; settings: human, DU-145 cells; 3000 nM, 1 hr (FIG. 1C)
Procedure: (§4) In order to determine if uptake of peptide 353 was receptor-mediated or receptor-specific in any way, Glu residues were substituted by Phe residues (peptide 361) or Asn residues (peptide 362). The resulting peptides were incubated at 0 to 3000 nM with DU-145 cells for 1 hr. Cells were then harvested and processed for analysis by flow cytometry. […] At 3000 nM, peptides 361 and 362 induced cell death in more than 70% of the cells (determined by staining with 7-AAD); in the case of peptide 361, over 95% of DU-145 cells were positive for 7-AAD; therefore only geometric MFI for concentrations up to 1000 nM are shown in the figure. […] The higher MFI observed for peptide 365 is likely due to the hydrophobicity of both the Phe residues and the dansyl fluorochrome. It was concluded from these experiments that peptide 353 bound to a cell-surface receptor through the glutamate residues.
as §3

[3] = system: DU-145 cells; test: Cell death determined by staining with 7-AAD; settings: concentrations higher than 300 nM
Procedure: as §4, §3

[4] = system: DU-145 cells; test: Imaging flow cytometry, intracellular distribution of FITC-labeled peptides; settings: 250 nM, 4 hours
Procedure: (§5) FIG. 3A: DU-145 and LN-CaP cells were incubated with 250 nM peptides 351 or 353 for 4 hours, counterstained with 5 μM DRAQ 5, then fixed in paraformaldehyde and analyzed by imaging flow cytometry on an Amnis Imaging Cytometer. IDEAS software (Amnis) was used to generate and colorize the images. […] FIG. 3B: Live cell imaging of peptide 353 by DU-145 cells. 500 nM peptide 353 was incubated with DU-145 cells overnight (necessary for imaging purposes). Cells were washed with phenol red-free buffer, counter-stained with DRAQ5 at 10 μM, then examined under a Zeiss Axiovert 200 inverted phase contrast microscope with epifluorescence. The merged image confirms the presence of peptide 353 in nuclei. FIGS. 3C and D: DU-145 cells incubated with peptides 350 and 356, as described for FIG. 3B. Note the absence of FITC fluorescence in nuclei.
(§6) Since flow cytometry only gives data regarding total shifts in fluorescence of a population, imaging flow cytometry and live imaging microscopy studies were performed to determine if the NLS augmented nuclear accumulation of the peptides. Imaging flow cytometry was chosen to provide data on intracellular distribution of FITC-labeled peptides. Inverted epifluorescence microscopy was chosen to eliminate inadvertant artifacts that may arise from fixation, such as nuclear translocation. For these studies, the cell-permeable fluorochrome DRAQ5 was used because it readily enters and stains nuclei of viable cells. […] It was not retained in the plasma membrane (FIG. 3A). […] The translocation of peptides to nuclei was complete in the sense that FITC and DRAQ5 fluorescence colocalized in all viable cells, although cytoplasmic fluorescence was visible as well. The FITC distribution was somewhat punctuate in the cytoplasmic portion of cells, leading us to conclude that the peptide may be accumulating within endosomes. […]
as §3, with “Concentrations ranging from 0 to 3000 nM were assayed.” left out, “At least 10,000 events were acquired using CellQuest Pro software and an Apple Macintosh G4 dual coprocessor computer running OS X 10.3.9.” left out

[5] = system: LNCaP cells; test: as above; settings: 250 nM, 4 hours
Procedure: as §5, §6
as §3, with “Concentrations ranging from 0 to 3000 nM were assayed.” left out, “At least 10,000 events were acquired using CellQuest Pro software and an Apple Macintosh G4 dual coprocessor computer running OS X 10.3.9.” left out

[6] = system: LNCaP cells; test: Peptide uptake by live cells, flow cytometry (geometric MFI); settings: 3 μM peptide, 1 hr (FIG. 1B)
Procedure: as §1, §2, §3

[7] = system: DU-145 cells; test: Live cell imaging of nuclear localization (epifluorescence microscopy); settings: 500 nM, 24 hrs incubation
Procedure: as §6
(§7) Live Cell Imaging Studies: A Zeiss Axiovert 200 inverted phase-contrast microscope outfitted with epifluorescence was used for live imaging studies. […] Images were acquired and analyzed using Zeiss Axiovision software.

[8] = system: LNCaP cells; test: as above; settings: 500 nM, 24 hrs incubation
Procedure: as §6, §7

[9] = up to 300 nM, 1 hr, 37 ° C. (FIG. 1C), from approximately 40 without peptide
[10] = 300 nM peptide, 4 hr, 37° C., NaN3 0%
[11] = 300 nM peptide, 4 hr, 37° C., NaN3 0.1%
[12] = 300 nM peptide, 4 hr, 37° C., NaN3 1.0%
[13] = 300 nM peptide, 4 hr, NaN3 0.1%
[14] = 300 nM peptide, 4 hr, NaN3 1.0%

Compound | cell death [3] | Geometric MFI [1, 10] | Geometric MFI [1, 11] | Geometric MFI [1, 12] | % Inhibition ([1]; 300 nM peptide, 4 hr, NaN3 0%) [%] | % Inhibition [1, 13] [%] | % Inhibition [1, 14] [%] | geometric MFI compared among the peptides (FIG. 1A) [1] | effect of NaN3 on uptake ([1]; 4 hr, 37° C.) | average geometric MFI [1] | further results
C[C@H](NC(=O)[C@H](C)NC(=O)[C@H](Cc1ccccc1)NC(=O)[C@H](Cc1ccccc1)NC(=O)[C@@H](N)Cc1ccccc1)C(=O)NCC(=O)N[C@@H](CCCNC(=N)N)C(=O)N[C@@H](CCCCN)C(=O)N[C@@H](CCCNC(=N)N)C(=O)N[C@@H](CCCCN)C(=O)N[C@@H](CCCCN)C(=O)N[C@@H](CCCNC(=N)N)C(=O)N[C@H](C(=O)N[C@@H](CCCCNC(=O)c1ccc2c(c1)C(=O)OC21c2ccc(O)cc2Oc2cc(O)ccc21)C(=O)O)[C@@H](C)O [Peptide 361, FFFAAGRKRKKRT-FITC] (H-FFFAAGRKRKKRTK(5FAM)-OH) | significant cell death | – | – | – | – | – | – | – | – | – | Geometric MFI [1, 9]: ~100; viability at 1 h, 3 µM [2]: < 50%
C[C@H](NC(=O)[C@H](C)NC(=O)[C@H](CC(N)=O)NC(=O)[C@H](CC(N)=O)NC(=O)[C@@H](N)CC(N)=O)C(=O)NCC(=O)N[C@@H](CCCNC(=N)N)C(=O)N[C@@H](CCCCN)C(=O)N[C@@H](CCCNC(=N)N)C(=O)N[C@@H](CCCCN)C(=O)N[C@@H](CCCCN)C(=O)N[C@@H](CCCNC(=N)N)C(=O)N[C@H](C(=O)N[C@@H](CCCCNC(=O)c1ccc2c(c1)C(=O)OC21c2ccc(O)cc2Oc2cc(O)ccc21)C(=O)O)[C@@H](C)O [Peptide 362, NNNAAGRKRKKRT-FITC] (H-NNNAAGRKRKKRTK(5FAM)-OH) | not seen | – | – | – | – | – | – | – | – | – | Geometric MFI [1, 9]: ~100; viability at 1 h, 3 µM [2]: < 50%
EEE-FITC [Peptide 350] | – | 25.6 | 26.4 | 29.7 | 0 | 0 | 0 | lowest values | no effect | – | –
EEEAA-FITC (not fully specified; carboxyfluorescein label; Synthetically produced Glu peptide (Peptide 351)) | – | 43.8 | 56.9 | 48.4 | 0 | 0 | 0 | lowest values | no effect | – | accumulation in the cells when the plasma membrane was excluded [4]: much less accumulation; nuclei positive for DRAQ5 and FITC colocalization [4]: ~10%; accumulation in the cells when the plasma membrane was excluded [5]: much less accumulation; nuclei positive for DRAQ5 and FITC colocalization [5]: ~10%
EEEAAGRKRKKRT-FITC (EEEAAGRKRKKRT-{FITC′}) [Peptide 353, glutamate peptide linked by alanine linker to Oct6 NLS] | not seen | 151 and 151.4 | 155.7 | 114 and 114.4 | 0 | 0 | – | significantly increased | – | 486 | uptake of carboxyfluorescein peptide 353 on coincubation ([1]; 300 nM 353 with 300 nM carboxydansyl peptide 365 or 366, 1 hr (FIG. 1D)): nearly unaltered uptake; Geometric MFI ([1]; 3 μM peptide, 1 hr (FIG. 1B)): 1500-2000; Geometric MFI [6]: 1500-2000; accumulation in the nuclei [7]: accumulated in the nuclei; accumulation in the nuclei [8]: accumulated in the nuclei
EEEAAGRKRKKRT-TATGATCTCCTCCGT-K-FITC (all peptide nucleic acid (PNA), 5' {P353}, 3' {Lys-FITC}) [Peptide 353-PNA] | – | – | – | – | – | – | – | – | – | – | MFI of the cells with increasing concentration ([1]; 0, 300, and 1000 nM, 18 hr (FIG. 4)): increased the MFI; MFI of small but highly fluorescent population of cells ([1]; 300 nM, 18 hr (FIG. 4)): greater than 10^3
EEEAAKKK-FITC (EEEAAKKK-{FITC′}) [Peptide 352] | – | 58.6 | 61.8 | 47.4 | 0 | 0 | 19.1 | significantly increased | no effect | 186 | –
FFFAAGRKRKKRT-K-dansyl (FFFAAGRKRKKRTK-dansyl) [Peptide 365] | – | – | – | – | – | – | – | – | – | – | uptake of carboxydansyl peptide on coincubation with peptide 353 [1]: without concomitant uptake
GRKRKKRT-FITC (GRKRKKRT-{FITC′}) [Peptide 356] | – | 417.6 | 293 | 181 | 0 | 29.8 | – | not nearly as great as that of peptide 353 | – | 325 | –
NNNAAGRKRKKRT-K-dansyl (NNNAAGRKRKKRTK-dansyl) [Peptide 366] | – | – | – | – | – | – | – | – | – | – | uptake of carboxydansyl peptide on coincubation with peptide 353 [1]: without concomitant uptake
